Measured values: patent EP1192131B1, “METHOD OF INHIBITING AMYLOID PROTEIN AGGREGATION AND IMAGING AMYLOID DEPOSITS USING ISOINDOLINE DERIVATIVES” (Warner-Lambert Company LLC, priority 1999, dated 2000)
Several values for one entry are separate records, joined by “and”; a condition that tells them apart may be missing. Equal values may be shown once. Read-outs that look alike come from different tables or passages of the source.

Legend:
Type in all cases: biochemical
Aβ(1-40) [1] = target: T1, Aβ(1-40) (Homo sapiens, UniProt P05067); test: BASSR (Beta-Amyloid Self-Seeding Radioassay), inhibition of self-seeded amyloid fibril growth; design: Soluble Aβ(1-40) peptide (Bachem, Torrance, CA); purchased Bachem, Torrance, CA; settings: 30 µM soluble Aβ (1-40) + 125I-labeled Aβ(1-40), 37°C, 3 to 5 hours, several values in a cell = repeat values, letter in parentheses = lot of compound (no letter = Lot P), (ppt), (v-shape) flags
T1 sequence (P05067 672-711): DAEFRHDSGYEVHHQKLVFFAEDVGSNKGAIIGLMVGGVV
Method: BASSR (Beta-Amyloid Self-Seeding Radioassay)
(§1) An assay for inhibitors of self-seeded amyloid fibril growth
Assay Buffer - 50 mM sodium phosphate, pH 7.5, 100 mM NaCl, 0.02% NaN3, 1 M urea (filter and store at 4°C)
Soluble Aβ(1-40) peptide (Bachem, Torrance, CA) - 2.2 mg/mL in deionized H2O (stored in aliquots at -20°C, keep on ice when thawed) will self-seed after 1 week storage. Typically, the solution should be stored until no lag phase is seen in the assay.
^125I-labeled Aβ (1-40) - 150K-350K cpm/µL in 100% acetonitrile -0.1% trifluoroacetic acid (TFA) -1% β-mercaptoethanol (aliquots stored at -20°C) ^125I-labeled Aβ(1-40) can be made in accordance with the procedure set forth by H. LeVine, III in Neurobiol. Aging, 16:755 (1995), which is hereby incorporated by reference, or this reagent may be purchased from Amersham, Arlington Heights, Illinois.
Final assay conditions: 30 µM soluble Aβ (1-40) in deionized water in assay buffer + 20-50K cpm ^125I-labeled Aβ(1-40) per assay. Compound to be tested is dissolved in dimethylsulfoxide (DMSO), typically 5-50 mM stock, such that the final concentration of DMSO is <1% v/v in the assay.
Assay: Reaction mixture for 50 assays (on ice) is comprised of 0.1-0.2 µL of ^125I-labeled A^125I-labeled Aβ(1-40) + 1 µL of soluble Aβ (1-40) + 13.5 µL assay buffer per assay. The following are the amounts of the components of the reaction mixture sufficient for 50 assay wells. 5-10 µL ^125I-labeled Aβ (1-40) dried down 675 µL assay buffer 50 µL soluble Aβ (1-40)
• 1) Prepare reaction mixture above by mixing components and storing on ice. • 2) Pipet 14.5 µL of reaction mixture into each of 50 wells on a polypropylene U-bottom 96-well microtiter plate on ice (Costar 3794). • 3) Add 1.7 µL, of diluted compound to be tested to each well in a column of eight, including solvent control. Serial 3-fold dilutions from 1 mM (100 µM final) in assay buffer -urea = 7 dilutions + zero. Each 96-well plate can therefore accommodate 11 samples + 1 Congo Red control (0.039-5 µM final in 2-fold steps). • 4) Seal the plate with aluminum film (Beckman 538619) and incubate for 10 minutes on ice. • 5) Raise the temperature to 37°C and incubate for 3 to 5 hours (depending on the lot of the peptide). • 6) Remove the aluminum film and add 200 µL/well of ice cold assay buffer with urea, collecting the radiolabeled fibrils by vacuum filtration through 0.2 µm pore size GVWP filters in 96-well plates (Millipore MAGV N22, Bedford, MA). Determine the radioactivity of the filters using standard methods well-known to those skilled in the art.

Aβ (1-42) = target: T2, Aβ (1-42) (Homo sapiens, UniProt P05067); test: BATYM assay, Aβ (1-42) aggregation, Thioflavin T fluorescence
T2 construct: Required Aβ (1-42)(California Peptide) was dried from its hexafluoroisopropanol (HFIP) stock solution; purchased California Peptide
T2 sequence (P05067 672-713): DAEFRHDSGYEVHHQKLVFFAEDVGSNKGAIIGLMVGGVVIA
Method: Required Aβ (1-42)(California Peptide) was dried from its hexafluoroisopropanol (HFIP) stock solution. The Aβ (1-42) was dissolved in dimethylsulfoxide (DMSO) and then mixed with phosphate buffered saline (PBS) (pH 7.4). The mixed Aβ (1-42) solution was filtered through a […] Omnipore membrane syringe filter (Millipore, Bedford, MA). The compound to be tested in DMSO (50 times concentrate) was put into each well (0.5 µL/well) of a 96-well plate. The Aβ (1-42) solution was added into each well (24.5 µL/well). The plate was centrifuged at 1,000 g for 5 minutes and incubated at 37°C for 1 day (Aβ 1-42; final concentration 100 µM).
After incubation Thioflavin T (ThT) (30 µM) solution in glycine-NaOH buffer (pH 8.5, 50 mM) was added into each well (250 µL/well), fluorescence was measured (ex. 440/20 nm; em 485/20 nm) using a fluorescence plate reader. The inhibitory activity was calculated as the reduction of fluorescence with the following formula: Inhibition (%) = {(F(Aβ)-F(Aβ+compound)}/{F(Aβ)-F (solvent+compound)} × 100 [formula]
The IC50s (concentration of test compound required to cause a 50% inhibition of aggregation) were calculated by a curve fitting program using the following equation. The data were obtained from two different experiments in triplicate. Inhibition (x) = 100-100/{1 + (x/IC50)^n }, [formula] x = concentration of tested compound (M), IC50 = (M), n = Hill coefficient.

Aβ(1-40) [2] = target: T1, Aβ(1-40); test: BASST (Beta-Amyloid Self-seeding, ThioflavinT), inhibition of self-seeded amyloid fibril growth; design: 30 µM soluble Aβ (1-40) in deionized water in assay buffer; settings: 30 µM soluble Aβ (1-40), 37°C, 3 to 5 hours, thioflavin T fluorescence, letter in parentheses = lot of compound (no letter = Lot P)
Method: BASST (Beta-Amyloid Self-seeding, ThioflavinT)
as §1
Assay Buffer - 50 mM sodium phosphate, pH 7.5, 100 mM NaCl, 0.02% NaN3, 1 M urea (filter and store at 4°C).
Soluble Aβ (1-40) - 2.2 mg/mL in deionized H2O (store in aliquots at -20°C, keep on ice when thawed) will self-seed after 1 week storage. Typically, the solution should be stored until no lag phase is seen in the assay.
Final assay conditions: 30 µM soluble Aβ (1-40) in deionized water in assay buffer. Compound to be tested is dissolved in DMSO, typically 5-50 mM stock, such that the final concentration of DMSO is <1% v/v in the assay.
Assay: Reaction mixture for 50 assays (on ice) comprised of 1 µL of soluble Aβ (1-40) + 13.5 µL assay buffer per assay. The following are the amounts of the components of the reaction mixture that result in each of the 50 assay wells. 50 µL soluble Aβ (1-40) 675 µL assay buffer
• 1) Prepare the reaction mix above by mixing the components and storing on ice. • 2) Pipet 14.5 µL of reaction mixture into each of 50 wells of a polystyrene U-bottom 96-well microtiter plate (Coming 25881-96) on ice. • 3) Add 1.7 µL of diluted compound to be tested to each well in a column of eight, including solvent control. Serial 3-fold dilutions from 1 mM (100 µM final) in assay buffer -urea = 7 dilutions + zero. Each 96-well plate can therefore accommodate 11 samples + 1 Congo Red control (0.039-5 µM final in 2-fold steps). • 4) Seal the plate with aluminum film and incubate for 10 minutes on ice. • 5) Raise the temperature to 37°C and incubate for 3 to 5 hours (depends on the lot of the peptide). • 6) Remove the aluminum film and add 250 µL/well of 5 µM thioflavin T (ThT) [T-3516, Sigma-Aldrich] in 50 mM glycine-NaOH, pH 8.5. Read fluorescence on a plate reader (ex = 440 nm/20 nm; em = 485 nm/20 nm) within 5 minutes.

Aβ (1-40) peptide = target: T3, Aβ (1-40) peptide (Homo sapiens, UniProt P05067); test: BAPA (Beta-Amyloid Peptide Aggregation, pH 6.0), filtration endpoint assay
T3 construct: 10 µL 0.5 mg/mL Aβ (1-40) peptide in 20% HFIP
T3 sequence (P05067 672-711): as the sequence (P05067 672-711) above
Method: BAPA (Beta-Amyloid Peptide Aggregation
This assay is used to provide a measure of inhibition by a compound against the aggregation behavior of the beta amyloid peptide.
The purpose of this assay is to provide a higher volume method of assaying the amount of beta amyloid aggregation using an endpoint assay based on filtration. In this assay, hexafluoroisopropanol (HFIP) is used to break down the initial amyloid peptide to a monomer state and use a concentration of 33 µM which is high enough so that aggregation will occur at pH 6.0 in several hours.
β-Amyloid Peptide Aggregation. pH 6 0 (BAPA)
In a 96-well plate (Costar 3794), we add 25 µL 50 mM Phosphate Buffer, pH 6.0, 10 µL 0.5 mg/mL Aβ (1-40) peptide in 20% HFIP + 0.1 µL/assay radioiodinated ^125I Aβ (1-40) [^125I Aβ(1-40)], and 1 µL of the compound to be tested starting at 50 mM with a concentration of DMSO <1%. Then, we incubate for 2 to 4 hours at room temperature. We stop the reaction with 200 µL of 50 mM phosphate buffer, pH 6.0, and filter it through a 0.2 µm 96-well filter plate (Millipore MAGU N22) We wash the filter plate with 100 µL of the same phosphate buffer. Aggregation was detected on a Microbeta counter after impregnating the filters with Meltilex (1450-441) and is corrected for background

[3] = read-out: BATYM IC50, Aβ 1-42 final concentration 100 µM, 37°C, 1 day, letter in parentheses = lot of compound (no letter = Lot P)
[4] = Aβ 1-42 final concentration 100 µM, 37°C, 1 day, letter in parentheses = lot of compound (no letter = Lot P), read-out: BATYM IC50
[5] = read-out: BASST IC50 (converted)
[6] = read-out: BAPA IC50; Aβ (1-40) 33 µM, pH 6.0, 2 to 4 hours at room temperature; letter in parentheses = lot of compound (no letter = Lot P)
[7] = Aβ (1-40) 33 µM, pH 6.0, 2 to 4 hours at room temperature; letter in parentheses = lot of compound (no letter = Lot P); read-out: BAPA IC50

IC50 (Aβ (1-42); [4])	Molecule	IC50 (Aβ (1-42); [3])	IC50 (Aβ(1-40) [2]; read-out: BASST IC50)	IC50 (Aβ(1-40) [2]; [5])	also measured
	O=C(O)c1ccccc1Nc1ccc2c(c1)CN(c1ccccc1)C2 [Example 13, 2-(2-Phenyl-2,3-dihydro-1H-isoindol-5-ylamino)-benzoic acid]	90.2 µM and 60 µM and > 100 µM and 79.7 µM and 83 µM			IC50 (Aβ(1-40) [1]; read-out: BASSR IC50): > 100 µM and 52 µM and 60 µM
	O=C(O)c1cccnc1Nc1ccc2c(c1)CN(c1ccc(Cl)c(Cl)c1)C2 [Example 24, 2-[2-(3,4-Dichloro-phenyl)-2,3-dihydro-1H-isoindol-5-ylamino]-nicotinic acid]		0.3 µM		IC50 (Aβ(1-40) [1]; read-out: BASSR IC50): 18 µM
11.4 µM	O=C(O)c1cc([N+](=O)[O-])ccc1Nc1ccc2c(c1)CN(c1ccc(Cl)c(Cl)c1)C2 [Example 5, 2-[2-(3,4-Dichlorophenyl)-2,3-dihydro-1H-isoindol-5-ylamino]-5-nitro-benzoic acid]			3 µM	IC50 (Aβ(1-40) [1]; read-out: BASSR IC50 (converted)): 5 µM and 4.1 µM and 3 µM
	O=C(O)c1cc([N+](=O)[O-])ccc1Nc1ccc2c(c1)CN(c1cccc(Cl)c1)C2 [Example 11, 2-[2-(3-Chloro-phenyl)-2,3-dihydro-1H-isoindol-5-ylamino]-5-nitro-benzoic acid]	12.6 µM	0.8 µM and 1 µM		IC50 (Aβ (1-40) peptide; [6]): > 100 µM
11.3 µM and 46.4 µM and 59.7 µM	COc1ccc(N2Cc3ccc(Nc4ccccc4C(=O)O)cc3C2)c(OC)c1OC [Example 1, 2-[2-(2,3,4-Trimethoxy-phenyl)-2,3-dihydro-1H-isoindol-5-ylamino]-benzoic acid]			2 µM and 1.6 µM and 3 µM (2×) and 15 µM (2×)	IC50 (Aβ (1-40) peptide; [7]): 72 µM
	O=C(O)c1cc([N+](=O)[O-])ccc1Nc1ccc2c(c1)CN(c1cccc(Cl)c1)C2 [Example 14, 2-[2-(3-Chloro-phenyl)-2,3-dihydro-1H-isoindol-5-ylamino]-5-nitro-benzoic acid]	12.6 µM	0.8 µM and 1 µM		IC50 (Aβ (1-40) peptide; [6]): > 100 µM

Molecule	IC50 (Aβ (1-42); [4])	IC50 (Aβ (1-42); [3])	IC50 (Aβ(1-40) [2]; read-out: BASST IC50)	IC50 (Aβ(1-40) [2]; [5])	also measured
4-Methoxy-5-nitro-2-[2-(3,4,5-trimethoxyphenyl)-2,3-dihydro-1H-isoindol-5-ylamino]benzoic acid [Example 3]	17.4 µM			3 µM and 2.1 µM	IC50 (Aβ (1-40) peptide; [7]): 64 µM
